Test results: paper PMC9541272, “Carba Analogues of Flupirtine and Retigabine with Improved Oxidation Resistance and Reduced Risk of Quinoid Metabolite Formation” (Chemmedchem, 2022)
“Also recorded” adds a separate entry of the source. Like-named read-outs stand apart in the source and are kept apart here.

Assays:
[1] = set-up: method as in guideline OPPTS 830.7570; conditions: reference substances for calibration, Tables S1–S6; ref guideline OPPTS 830.7570; cited from earlier work
[2] = set-up: method as in PMID 25264565; conditions: oral administration of 400 mg flupirtine, modified release dosage form once daily for 8 days; cited from earlier work
[3] = tested on: HEP‐G2 human hepatoma cell line; conditions: human, 24 h
[4] = molecular target: T1, KV7.2/3 channel (Homo sapiens, UniProt O43525+O43526); assay: KV7.2/3 channel opening activity, thallium-flux FLIPR Potassium Assay in HEK-293 cells overexpressing KV7.2/3; set-up: Emax: dose or concentration left out as unconfirmed; conditions: for Emax: HEK293E, read-out: Efficacy; for EC50 (required concentration to reach half‐maximal KV7.2/3 channel opening activity) / KV7.2/3 opening activity (in words): HEK‐293 cells overexpressing KV7.2/3; for EC50 (required concentration to reach half‐maximal KV7.2/3 channel opening activity): mean ± SD, at least three determinations; for EC50 (required concentration to reach half‐maximal KV7.2/3 channel opening activity) / Efficacy: –[e] = inactive up to a concentration of 20 μM; for Efficacy: maximal fluorescence signal relative to flupirtine (100 %), HEK‐293
[5] = Cyclic voltammetry, anodic peak potential (oxidizability); type: physicochemical; conditions: 0.1 M Tris‐HCl buffer pH 7.4, −0.5 to 1.0 V, sweep rate 0.1 V/s, –[b] = no oxidation observed in the specified potential range
[6] = set-up: method as in earlier work; conditions: severe but sporadic hepatotoxic events; cited from earlier work
[7] = tested on: TAMH mouse liver cell line; conditions: mouse, 24 h
[8] = molecular target: T1, KV7.2/3 channel; set-up: method as in PMID 30990511; conditions: previous work; cited from earlier work
[9] = LogD7.4 estimation by HPLC-based method; type: physicochemical; conditions: for logD7.4 (single determination): calculated from retention time with one calibration function (A–F)
Procedure: The logarithm of the capacity factors of the reference substances was then plotted against the corresponding logP values taken from the mentioned guideline to obtain a calibration function. For non‐ionizable compounds like the reference substances used for calibration, logP values can be considered equivalent to the logD 7.4 values. To obtain a reference mixture, 2 mg of the reference substances were each dissolved in 1 mL of methanol, and 50 μL aliquots of each reference solution were subsequently combined. The reference mixture was measured before and after the substances to be tested, and the mean retention time from both measurements was used to calculate the calibration function. The calibration function was then used to determine the logD 7.4 values from the corresponding retention times for each substance to be tested. The compounds of interest were injected as a solution in methanol (2 mg/mL), and the retention time was determined as the mean value from two measurements.

[10] = pH 7.4, calculated from retention time with one calibration function (A–F), Table S7, read-out: logD7.4 (single determination)
[11] = pH 7.4, estimated by HPLC-based method, pH 7.4, read-out: LogD 7.4

T1 sequence (O43525 whole entry): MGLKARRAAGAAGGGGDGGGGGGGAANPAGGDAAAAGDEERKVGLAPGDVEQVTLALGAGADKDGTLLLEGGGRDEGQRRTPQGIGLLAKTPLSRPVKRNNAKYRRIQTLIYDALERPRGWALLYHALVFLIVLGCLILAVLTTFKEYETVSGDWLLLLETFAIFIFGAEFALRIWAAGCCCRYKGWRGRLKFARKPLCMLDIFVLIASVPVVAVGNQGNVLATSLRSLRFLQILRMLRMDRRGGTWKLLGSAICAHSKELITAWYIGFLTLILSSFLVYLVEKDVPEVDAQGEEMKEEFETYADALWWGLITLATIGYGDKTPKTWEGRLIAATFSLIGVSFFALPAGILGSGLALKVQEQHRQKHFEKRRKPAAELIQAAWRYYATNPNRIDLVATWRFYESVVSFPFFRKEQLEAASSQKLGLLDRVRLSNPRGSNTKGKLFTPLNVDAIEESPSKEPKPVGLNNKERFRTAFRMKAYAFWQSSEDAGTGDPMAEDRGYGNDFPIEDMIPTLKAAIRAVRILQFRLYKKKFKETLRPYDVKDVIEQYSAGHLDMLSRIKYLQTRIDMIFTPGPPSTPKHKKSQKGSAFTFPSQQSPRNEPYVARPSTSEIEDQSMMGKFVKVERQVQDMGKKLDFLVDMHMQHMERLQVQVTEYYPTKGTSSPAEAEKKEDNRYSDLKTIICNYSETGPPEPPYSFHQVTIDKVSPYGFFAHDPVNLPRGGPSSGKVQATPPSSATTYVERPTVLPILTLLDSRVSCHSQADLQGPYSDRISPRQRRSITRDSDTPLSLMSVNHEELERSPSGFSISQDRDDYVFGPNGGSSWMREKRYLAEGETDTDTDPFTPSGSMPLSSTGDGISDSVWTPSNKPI
T1 sequence (O43526 whole entry): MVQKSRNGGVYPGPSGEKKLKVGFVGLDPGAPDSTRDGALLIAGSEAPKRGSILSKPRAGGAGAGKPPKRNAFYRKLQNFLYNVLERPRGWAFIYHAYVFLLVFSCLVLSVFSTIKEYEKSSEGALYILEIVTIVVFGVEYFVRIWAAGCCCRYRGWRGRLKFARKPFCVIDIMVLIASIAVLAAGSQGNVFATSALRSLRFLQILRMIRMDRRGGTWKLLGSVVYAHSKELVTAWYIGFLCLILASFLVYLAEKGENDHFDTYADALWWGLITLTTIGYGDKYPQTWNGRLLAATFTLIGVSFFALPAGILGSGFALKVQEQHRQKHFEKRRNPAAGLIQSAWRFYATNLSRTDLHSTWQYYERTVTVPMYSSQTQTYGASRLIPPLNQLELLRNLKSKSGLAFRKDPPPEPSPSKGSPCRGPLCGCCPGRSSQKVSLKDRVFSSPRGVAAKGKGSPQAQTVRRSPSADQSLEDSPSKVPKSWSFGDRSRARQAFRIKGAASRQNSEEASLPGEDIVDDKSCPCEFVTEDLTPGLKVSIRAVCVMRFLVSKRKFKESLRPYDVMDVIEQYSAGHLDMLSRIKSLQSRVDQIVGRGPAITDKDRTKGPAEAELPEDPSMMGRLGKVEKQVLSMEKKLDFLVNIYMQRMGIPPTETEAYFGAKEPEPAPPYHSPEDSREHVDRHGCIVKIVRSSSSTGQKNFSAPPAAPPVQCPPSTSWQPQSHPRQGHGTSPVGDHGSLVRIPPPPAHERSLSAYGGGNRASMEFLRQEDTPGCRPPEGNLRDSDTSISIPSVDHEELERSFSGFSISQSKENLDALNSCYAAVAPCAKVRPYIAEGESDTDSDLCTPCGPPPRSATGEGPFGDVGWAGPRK

| SMILES | LD25 (concentration to reduce cell viability by 25 %) [3] | Emax [4] | Ep.a. (anodic peak potential) [5] | LD25 (concentration to reduce cell viability by 25 %) [7] | LD50 (concentration to reduce cell viability by 50 %) [3] | EC50 [4] | logD7.4 (single determination) ([9]; Table S7) | chromatographic logD [9, 10] | chromatographic logD [9, 11] | LD50 (concentration to reduce cell viability by 50 %) [7] | other results |
| --- | --- | --- | --- | --- | --- | --- | --- | --- | --- | --- | --- |
| CCOC(=O)c1ccccc1 [Ethyl benzoate] | – | – | – | – | – | – | – | – | – | – | logD (Lit.) [1]: 2.6 |
| CCOC(=O)Nc1ccc(NCc2ccc(F)cc2)nc1N [Flu, flupirtine] | 74 ± 40 µM | 100% | 306 mV | 103 ± 47 µM | – | – | – | – | – | – | peak plasma concentration [2]: 1.6 µM; reporting rate of hepatotoxic events [6]: 1.68 cases/100,000 patient‐years; LD25 values (range over both liver cell lines) ([7]; human): 74 to 103 µM |
| O=C(Oc1ccccc1)c1ccccc1 [Phenyl benzoate] | – | – | – | – | – | – | – | – | – | – | logD (Lit.) [1]: 3.6 |
| CCOC(=O)Nc1ccc(NCc2ccc(F)cc2)nc1C [compound 6] | – | – | – | – | – | – | – | – | – | – | KV7.2/3 opening potency (in words) [8]: equipotent to flupirtine |
| CCOC(=O)Nc1ccc(C#Cc2ccccc2)nc1N [compound 21, Ethyl [2‐amino‐6‐(phenylethynyl)pyridin‐3‐yl]carbamate] | >125 µM | – | 553 mV | 63 ± 12 µM | >125 µM | > 20 µM | 2.983 | 2.99 | 3 | >125 µM | EC50 (required concentration to reach half‐maximal KV7.2/3 channel opening activity) [4]: –^[e]; Efficacy [4]: –^[e] |
| Cc1nc(CNc2ccc(F)cc2)ccc1NC(=O)OCC(C)C [compound 27, Isobutyl (6‐{[(4‐fluorophenyl)amino]methyl}‐2‐methylpyridin‐3‐yl)carbamate] | 136 ± 38 µM | 94 ± 15% | 648 mV | 76 ± 15 µM | >250 µM | 4.12 ± 3.95 µM | 3.408 | 3.42 | 3.4 | >250 µM | – |
| CCCC(=O)Nc1ccc(CNc2ccc(F)cc2)cn1 [compound 44, N ‐(5‐{[(4‐Fluorophenyl)amino]methyl}pyridin‐2‐yl)butyramide] | – | – | – | – | – | – | – | – | – | – | melting point: 92 °C |
| Cc1cc(CNc2ccc(F)cc2)ccc1NC(=O)c1ccccc1CO [compound 48, N ‐(4‐{[(4‐Fluorophenyl)amino]methyl}‐2‐methylphenyl)‐2‐(hydroxymethyl)benzamide] | 80 ± 7 µM | – | no anodic peak potential could be determined; also recorded: –^[b] | 70 ± 10 µM | 84 ± 6 µM | – | 2.899 | 2.93 | 2.9 | >125 µM | KV7.2/3 opening activity (in words) [4]: inactive; EC50 (required concentration to reach half‐maximal KV7.2/3 channel opening activity) [4]: –^[e]; Efficacy [4]: –^[e] |
| Cc1cc(CNc2ccc(F)cc2)ccc1NC(=O)CCn1cccn1 [compound 53, N ‐(4‐{[(4‐Fluorophenyl)amino]methyl}‐2‐methylphenyl)‐3‐(1H ‐pyrazol‐1‐yl)propanamide] | >63 µM | 144 ± 42% | no anodic peak potential could be determined; also recorded: –^[b] | >63 µM | >63 µM | 2.36 ± 0.543 µM | 2.924 | 2.93 | 2.9 | >63 µM | KV7.2/3 opening activity (in words) [4]: fair KV7.2/3 opening activity; fold decrease in potency compared to butanoylamino sidechain (35 a) ([4]; KV7.2/3 opening, ratio of EC50 values): 3.5 fold |
